# Counter-ions that a name gives are not always drawn.
# Target: T1, hCaV2.2 (Homo sapiens, UniProt Q00975)
# T1 construct: expressed in transfected cells; plasmids pCIN5-hCaV2.2, pCIH-hCaV β3, pCIP-α2δ1
# Assay: hCaV2.2 assay, IonWorks planar array electrophysiology in stably transfected HEK293 cells
# Type: cell-based
# Settings: current elicited by the 1st depolarising pulse inhibited by 50%; HEK293 cells expressing human CaV2.2 alpha/beta3/alpha2delta1; read-out: mean pIC50 (tonic pIC50) (converted)
# Description: Compounds of the invention may be tested for in vitro biological activity in the hCaV2.2 assay in accordance with the following studies:
# Stable cell lines expressing the human CaV2.2 α (als) subunit, along with the human […] and α2δ1 auxiliary subunits were created following sequential transfection and selection of human embryonic kidney (HEK293) cells. HEK293 cells were cultured in Dulbecco's modified Eagles media/F12 media (Invitrogen, Cat #041-95750V) containing 10% foetal bovine serum, with added L-glutamine (2 mM; Invitrogen, Cat #25030-024) and non-essential amino acids (5%; Invitrogen, Cat #11140-035). Initially HEK293 cells were transfected with two plasmid vectors for expression of the hCaV2.2 α subunit (pCIN5-hCaV2.2 which carries a neomycin resistance marker) and the hCaV β3 subunit (pCIH-hCaV β3 which carries a hygromycin resistance marker). Clonal cell lines were isolated following selection in media supplemented with 0.4 mg ml^−1 Geneticin G418 (Invitrogen, Cat #10131-027) and 0.1 mg ml^1 hygromycin (Invitrogen, Cat #10687-010). These clonal cell lines were assessed for Cav2.2α/β3-mediated current expression using the IonWorks planar array electrophysiology technology (described below). A clonal line was identified that gave a reasonable level of functional Cav2.2α/β3 current expression. This cell line was transfected with a plasmid vector for expression of the human […] subunit (pCIP-α2δ1 which carries a puromycin resistance marker) and clonal cell lines isolated following selection in media containing 0.62 μg ml^−1 puromycin (Sigma, Cat #P-7255), in addition to 0.4 mg ml^−1 Geneticin G418 and 0.1 mg ml^−1 hygromycin. Several cell lines were identified that gave robust levels of Cav2.2α/β3/α2δ1-mediated current expression and one of these was selected for compound profiling. Expression of all three subunits within this cell line was continuously maintained by the inclusion of G418 (0.4 mg ml^−1), hygromycin (0.1 mg ml^−1) and puromycin (0.62 μg ml^−1). Cells were maintained at 37° C. in a humidified environment containing 5% CO2 in air. Cells were liberated from the T175 culture flasks for passage and harvesting using TrpLE (Invitrogen, Cat #12604-013).
# Cells were grown to 30-60% confluence in T175 flasks and maintained at 30° C. for 24 hrs prior to recording. Cells were lifted by removing the growth media, washing with Ca^2+ free PBS (Invitrogen, Cat #14190-094) and incubating with 3 ml of warmed (37° C.) TrpLE (Invitrogen, Cat #12604-013) for 6 minutes. Lifted cells were suspended in 10 ml of extracellular buffer. Cell suspension was then placed into a 15 ml tube and centrifuged for 2 minutes at 700 rpm. After centrifugation, the supernatant was removed and the cell pellet was resuspended in 4.5 ml of extracellular solution.
# Currents were recorded at room temperature (21-23° C.) using the IonWorks planar array electrophysiology technology (Molecular Devices Corp.). Stimulation protocols and data acquisition were carried out using a microcomputer (Dell Pentium 4). In order to determine planar electrode hole resistances (Rp), a 10 mV, 160 ms potential difference was applied across each hole. These measurements were performed before cell addition. After cell addition a seal test was performed prior to antibiotic (amphotericin) circulation to achieve intracellular access. Leak subtraction was conducted in all experiments by applying a 160 ms hyperpolarizing (10 mV) prepulse 200 ms before the test pulses to measure leak conductance. Test pulses stepping from the holding potential (VH) of −90 mV to +10 mV were applied for 20 ms and repeated 10 times at a frequency of 10 Hz. In all experiments, the test pulse protocol was performed in the absence (pre-read) and presence (post-read) of a compound. Pre- and post-reads were separated by a compound addition followed by a 3-3.5 min incubation.
# The intracellular solution contained the following (in mM): K-gluconate 120, KCl 20 mM, MgCl2 5, EGTA 5, HEPES 10, adjusted to pH 7.3. […]
# T1 sequence (Q00975 whole entry): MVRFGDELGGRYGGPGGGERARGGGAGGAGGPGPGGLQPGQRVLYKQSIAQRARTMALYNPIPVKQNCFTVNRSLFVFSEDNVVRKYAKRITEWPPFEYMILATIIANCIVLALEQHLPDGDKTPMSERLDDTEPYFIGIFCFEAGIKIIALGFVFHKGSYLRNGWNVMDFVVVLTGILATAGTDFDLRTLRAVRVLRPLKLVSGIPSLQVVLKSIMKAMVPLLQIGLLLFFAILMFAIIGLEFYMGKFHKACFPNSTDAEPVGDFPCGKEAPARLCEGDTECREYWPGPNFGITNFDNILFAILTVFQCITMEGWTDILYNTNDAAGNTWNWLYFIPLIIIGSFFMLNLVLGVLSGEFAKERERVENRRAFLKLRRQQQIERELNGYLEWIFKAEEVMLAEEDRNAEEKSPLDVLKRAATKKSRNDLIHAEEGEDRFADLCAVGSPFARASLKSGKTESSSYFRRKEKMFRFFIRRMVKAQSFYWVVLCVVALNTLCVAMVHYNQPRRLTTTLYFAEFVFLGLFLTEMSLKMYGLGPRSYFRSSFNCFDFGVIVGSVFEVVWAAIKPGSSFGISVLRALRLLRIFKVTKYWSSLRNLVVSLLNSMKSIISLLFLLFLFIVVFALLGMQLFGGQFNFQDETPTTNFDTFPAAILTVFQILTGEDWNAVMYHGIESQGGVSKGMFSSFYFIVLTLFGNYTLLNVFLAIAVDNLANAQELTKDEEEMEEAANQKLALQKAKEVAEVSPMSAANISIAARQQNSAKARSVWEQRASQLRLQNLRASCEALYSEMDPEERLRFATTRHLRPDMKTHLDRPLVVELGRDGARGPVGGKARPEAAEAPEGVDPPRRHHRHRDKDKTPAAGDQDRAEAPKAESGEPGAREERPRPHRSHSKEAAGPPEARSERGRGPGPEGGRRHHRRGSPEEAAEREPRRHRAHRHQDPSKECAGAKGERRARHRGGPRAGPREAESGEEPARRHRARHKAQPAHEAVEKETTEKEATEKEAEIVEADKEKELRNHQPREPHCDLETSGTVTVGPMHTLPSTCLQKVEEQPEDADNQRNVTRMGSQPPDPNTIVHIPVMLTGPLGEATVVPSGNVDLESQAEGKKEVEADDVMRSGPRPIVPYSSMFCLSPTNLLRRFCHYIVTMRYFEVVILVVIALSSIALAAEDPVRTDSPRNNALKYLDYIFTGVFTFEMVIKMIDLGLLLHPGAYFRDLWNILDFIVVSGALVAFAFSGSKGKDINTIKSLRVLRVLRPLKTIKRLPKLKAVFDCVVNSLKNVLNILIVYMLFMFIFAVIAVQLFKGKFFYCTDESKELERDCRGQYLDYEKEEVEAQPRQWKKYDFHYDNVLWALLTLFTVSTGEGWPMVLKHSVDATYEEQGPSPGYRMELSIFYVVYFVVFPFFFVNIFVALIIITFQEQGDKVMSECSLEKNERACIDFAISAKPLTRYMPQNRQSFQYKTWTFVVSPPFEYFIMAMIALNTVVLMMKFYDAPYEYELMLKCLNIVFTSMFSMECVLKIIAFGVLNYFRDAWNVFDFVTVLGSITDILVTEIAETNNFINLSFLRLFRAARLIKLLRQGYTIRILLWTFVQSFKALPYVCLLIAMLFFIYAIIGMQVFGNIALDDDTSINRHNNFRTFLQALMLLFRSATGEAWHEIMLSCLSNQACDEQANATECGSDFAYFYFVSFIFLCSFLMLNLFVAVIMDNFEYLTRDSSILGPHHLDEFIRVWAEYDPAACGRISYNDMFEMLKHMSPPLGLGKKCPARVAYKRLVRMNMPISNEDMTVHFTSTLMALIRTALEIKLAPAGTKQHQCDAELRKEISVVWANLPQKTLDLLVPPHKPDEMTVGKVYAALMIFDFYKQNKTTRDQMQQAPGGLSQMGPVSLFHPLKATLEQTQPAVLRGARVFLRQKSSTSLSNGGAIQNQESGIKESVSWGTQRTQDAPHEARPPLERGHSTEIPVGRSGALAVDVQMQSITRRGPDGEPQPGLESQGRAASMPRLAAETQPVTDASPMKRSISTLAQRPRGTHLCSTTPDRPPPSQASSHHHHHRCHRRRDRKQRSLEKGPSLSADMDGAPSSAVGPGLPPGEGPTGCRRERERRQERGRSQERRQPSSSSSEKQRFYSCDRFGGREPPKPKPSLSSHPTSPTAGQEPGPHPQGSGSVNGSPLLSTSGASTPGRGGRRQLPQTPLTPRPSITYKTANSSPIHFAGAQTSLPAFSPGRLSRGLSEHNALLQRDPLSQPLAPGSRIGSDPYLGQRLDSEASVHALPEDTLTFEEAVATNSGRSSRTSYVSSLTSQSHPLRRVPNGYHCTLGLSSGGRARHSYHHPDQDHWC
row,SMILES,IC50 [µM]
1,"Cc1ncccc1C(=O)N1CCN(S(=O)(=O)c2ccc(C(F)(F)F)cc2)C[C@@H]1C [Example 2, (2S)-2-Methyl-1-[(2-methyl-3-pyridinyl)carbonyl]-4-{[4-(trifluoromethyl)phenyl]sulfonyl}piperazine hydrochloride]",≥ 31.6
2,"Cc1ncccc1C(=O)N1CCN(S(=O)(=O)c2ccc(OC(F)(F)F)cc2)C[C@H]1C [Example 65, (2R)-2-methyl-1-[(2-methyl-3-pyridinyl)carbonyl]-4-({4-[(trifluoromethyl)oxy]phenyl}sulfonyl)piperazine]",≥ 31.6
3,"Cc1ccc(C(=O)N2CCN(S(=O)(=O)c3ccc(C#N)cc3C)C[C@@H]2C)cn1 [Example 17, 3-Methyl-4-({(3S)-3-methyl-4-[(6-methyl-3-pyridinyl)carbonyl]-1-piperazinyl}sulfonyl)benzonitrile]",≥ 31.6
4,"C[C@H]1CN(S(=O)(=O)c2ccc(C(F)(F)F)cc2)CCN1C(=O)c1ccc(N2CCOCC2)nc1 [Example 42, 4-{5-[((2S)-2-Methyl-4-{[4-(trifluoromethyl)phenyl]sulfonyl}-1-piperazinyl)carbonyl]-2-pyridinyl}morpholine hydrochloride]",≥ 10
5,"Cc1nc(N2CCC2)ccc1C(=O)N1CCN(S(=O)(=O)c2ccc(C(F)(F)F)cc2)C[C@@H]1C [Example 39, (2S)-1-{[6-(1-Azetidinyl)-2-methyl-3-pyridinyl]carbonyl}-2-methyl-4-{[4-(trifluoromethyl)phenyl]sulfonyl}piperazine hydrochloride]",≥ 31.6
6,"Cc1ccc(C(=O)N2CCN(S(=O)(=O)c3ccc(OC(F)(F)F)cc3)C[C@@H]2C)cn1 [Example 21, (2S)-2-Methyl-1-[(6-methyl-3-pyridinyl)carbonyl]-4-({4-[(trifluoromethyl)oxy]phenyl}sulfonyl)piperazine]",≥ 31.6

# Now from value to molecule:
row,IC50 [µM],SMILES
1,≥ 31.6,"Cc1cc(C#N)ccc1S(=O)(=O)N1CCN(C(=O)c2ccc(N(C)C)nc2)[C@@H](C)C1 [Example 71, 4-[((3S)-4-{[6-(dimethylamino)-3-pyridinyl]carbonyl}-3-methyl-1-piperazinyl)sulfonyl]-3-methylbenzonitrile]"
2,≥ 31.6,"Cc1ccc(C(=O)N2CCN(S(=O)(=O)c3ccc(OC(F)F)cc3)CC2)cn1 [Example 73, 1-({4-[(difluoromethyl)oxy]phenyl}sulfonyl)-4-[(6-methyl-3-pyridinyl)carbonyl]piperazine]"
3,≥ 31.6,"Cc1ccc(C(=O)N2CCN(S(=O)(=O)c3ccc(C(F)(F)F)cc3C)CC2)cn1 [Example 74, 1-[(6-methyl-3-pyridinyl)carbonyl]-4-{[2-methyl-4-(trifluoromethyl)phenyl]sulfonyl}piperazine]"
